System: human OVCAR-3 (NIH-OVCAR-3) ovarian adenocarcinoma
Assay: OVCAR-3 ovarian carcinoma xenograft efficacy study
Format: in vivo, SCID mice
Protocol: The human OVCAR-3 (NIH-OVCAR-3) ovarian adenocarcinoma utilized in the study is maintained in athymic nude mice by serial engraftment. The human SW620 colon adenocarcinoma utilized in the study is maintained in nude mice by serial engraftment.
Tumor weight may be estimated with the assumption that 1 mg is equivalent to 1 mm^3 of tumor volume. Tumor size, in mm^3, was calculated from: […]
Oral group receives BA p.o. (orally) twice daily from D1 p.m. until D68 a.m. (b.i.d. to end, i.e. twice daily dosing for the duration of the study). Alzet model osmotic pumps are implanted on Days 1, 15, and 29. The pumps are pre-warmed for 1 hour at 37° C., and then implanted subcutaneously (s.c.) in the left flanks of isofluoraneanesthetized mice. Each pump delivers a total dose of 25 mg/kg/week of BA over 14 days. BA is administrated intraperitoneally (i.p.) 15 mg/kg respectively twice weekly.
Each animal is euthanized when its neoplasm reached the predetermined endpoint size (1,000 mm^3).
where: T=median TTE for a treatment group, C=median TTE for control Group 1.

With `NC(=O)c1ccc(I)c([N+](=O)[O-])c1` [BA, 4-iodo-3-nitrobenzamide] the tumor growth (OVCAR-3 xenograft in SCID mice) was “significantly inhibits tumor growth” and the “survival compared with the untreated control” value (different routes of administration, FIG. 3) was “improves survival”.

From patent publication US20090123419A1, “TREATMENT OF UTERINE CANCER AND OVARIAN CANCER WITH A PARP INHIBITOR ALONE OR IN COMBINATION WITH ANTI-TUMOR AGENTS” (BiPar Sciences, priority 2007, published 2009)
